In patent US5223482A, “Recombinant Alzheimer's protease inhibitory amyloid protein and method of use” (Scios Nova Inc., priority 1989, dated 1993):
Where no end group is shown, it is not given here.

Assays:
Format in all cases: biochemical
[1] = molecular target: trypsin; test: Kinetics of inhibition (Ki) of the protease inhibitor for trypsin
Experimental: (§1) The analogs of the present protease inhibitors are constructed from oligonucleotides containing the specific codons encoding the desired amino acid at this location, using site-specific mutagenesis techniques as are known in the art. The desired activities of the analogs thus constructed are assayed using the appropriate enzyme, for example, either trypsin, chymotrypsin or elastase as the standard in one of the respective assays using, for example, the trypsin or chymotrypsin assays described in Tan, N. H. Biochem (1977) 16:1531-1541 and the elastase assays Barrett, A. J. (1981) in Methods in Enzymology vol. 80, L. Lorand ed., Academic Press, New York. The activity of the analogs may be compared with that of the natural protease inhibitor of the invention.

[2] = molecular target: chymotrypsin; test: Kinetics of inhibition (Ki) of the protease inhibitor for chymotrypsin
Experimental: as §1

[3] = tested on: trypsin; test: Trypsin inhibition assay (hydrolysis of N-benzoyl-D-arginine-p-nitroaniline, release of pNA); details: HPLC peaks of the trypsin affinity column eluate
Experimental: All 8 oligonucleotides encoding either the phoA or ompA fusions were mixed together and treated with ligase. […] The ligated constructs were then ligated into the NdeI-HindIII sites of the vector pTRP233. The ligated vectors were transfected into E. coli strain MC1061 and Amp^R colonies selected. […] Miniprep DNA was used to transfect strains W3110 and JE5505. Small scale cultures of each of the three strains were grown and induced with IAA overnight. Culture supernatants were examined for trypsin inhibitory acitvity. Trypsin is assayed for its ability to hydrolyze the synthetic substrate N-benzoyl-D-arginine-p-nitroaniline to release p-nitroaniline (pNA). The release of pNA as a function of time is easily monitored in a spectrophotomer and can be quantitated to measure trypsin activity. The inhibitor is detected in this assay by virtue of its ability to bind to trypsin and prevent hydrolysis of the substrate by trypsin. Inhibitory activity wad detected in the culture medium for both ompA and phoA constructs in JE5505 but not W3110 or MC1601. Expression levels appeared to be higher with the phoA construct and so only this construct was used for subsequent experiments.

| Ki [1] [nM] | Ki [2] [nM] | Substance | activity in the trypsin inhibition assay [3] |
| --- | --- | --- | --- |
| 3 | 8.5 | natural protease inhibitor: 57 amino acid Kunitz-type protease inhibitor, residues 289 through 345 of the λAPCP168i4 β-amyloid-related protein (EVCSEQAETGPCRAMISRWYFDVTEGKCAPFFYGGCGGNRNNFDTEEYCMAVCGSAM; Kunitz inhibitor domain; UniProt P05067 289-345, looked up, fragment) | – |
| – | – | peak 4: major HPLC peak of the purified inhibitor; mass consistent with full length A4i with 3 disulfide bridges (EVCSEQAETGPCRAMISRWYFDVTEGKCAPFFYGGCGGNRNNFDTEEYCMAVCGSAM; disulfide (positions not given here); UniProt P05067 289-345, looked up, fragment) | active |
